In patent publication US20070232690A1, “Composition for inducing differentiation of leukemic cells and application thereof” (Mackay Memorial Hospital, priority 2006, published 2007):
Values after ≈ are worked out from the molar mass of the structure shown. Marks after values point to notes of the source that are not given here.

What was measured:
Format in all cases: cell-based, human
HL-60 cells [1] = assay: Induction of monocytic differentiation by various combination treatments
Description: After 5 days of treatments (1-5 μg/ml of […]) as described in Example 1, HL-60 cells were collected and cytocentrifuged onto a microscope slide using a Cytospin, stained with Wright's stain and observed under an inverted microscope (Olympus) with a magnification of 1000×. Based on morphology, the cells were classified as: […] These combination treatments included: […]

HL-60 cells [2] = assay: Assay for cell growth inhibition (Trypan blue dye exclusion); details: for inhibition at 5 µg/mL: 5 μg/ml
Excerpt: The human myeloid leukemic cell line HL-60 is known to be induced by several biological agents or chemical drugs to differentiate into mature cells. The results of differentiation can be cell morphological changes, cell chemical changes or functionally mature changes. Therefore, HL-60 cells were often applied in many differentiation studies of leukemic cells. The present invention used the human myeloid leukemic cell line HL-60 (ATCC, Manassas, Va.) to study the cell differentiation inducting ability of 278E.
The HL-60 cells were cultured in RPMI 1640 medium containing 10% fetal bovine serum and maintained in an exponential growth state. For assay of cytotoxicity, cells were incubated at an initial concentration of 1×10^5 cells/ml in the presence of various concentrations of 278E compounds (1-6 μg/ml) for 1-5 days.

HL-60 cells [3] = assay: Maturation profiles (morphology, Wright's stain)
Description: After 5 days of treatments (1-5 μg/ml of 278E) as described in Example 1, HL-60 cells were collected and cytocentrifuged onto a microscope slide using a Cytospin, stained with Wright's stain and observed under an inverted microscope (Olympus) with a magnification of 1000×. Based on morphology, the cells were classified as: (1) immature blasts, (2) intermediates, or (3) mature monocytes or macrophages, and the ratio was counted respectively.

HL-60 cells [4] = assay: Assay for superoxide production (NBT reduction); details: 5 days
Description: It has been known that immature blast cells had little superoxide production. The differentiation of cells is further evidenced in changes of superoxide production. Cells collected from example 1 after treatment with 278E for 5 days were collected and resuspended in RPMI 1640 medium at a concentration of 1×10^6 cells/ml and incubated for 30 min at 37° C. with an equal volume of nitroblue tetrazolium test stock solution [containing 2 mg of NBT and 1 μM of phorbol myristate acetate per ml of phosphate buffered saline]. Cells were collected and cytocentrifuged onto a microscope slide using cytospin. Cytospin preparations were counter-stained with 0.5% safranin O. The percentage of formazan-containing cells (based on counting 200 cells) was assessed microscopically.

HL-60 cells [5] = assay: Assay for differentiation antigens (indirect immunofluorescence, flow cytometry); details: day 5
Description: An indirect immunofluorescence method was employed in the invention to detect the expression of monocyte-associated antigens on the surface of HL-60 cells after induction of differentiation. 278E-treated cells collected from day 5 cultures were treated with primary monoclonal antibodies, washed with PBS and then exposed to a solution containing […] (FITC) conjugated secondary antibody, goat F(ab′)2 antimouse IgG (Cappel, Cochranville, Pa.). The aforementioned monoclonal antibodies against human monocytes included anti-CD 11b, anti-CD14 (Serotec, Oxford, UK), and anti-CD68 (Dakopatts, Glostrup, Denmark). The percentage of positive cells analyzed with a FACScan flow cytometer (Becton Dickenson, Franklin Lakes, N.J.) and Lysis II software (Becton Dickinson) is shown in Table 2.

[6] = test system: c-myc, c-fms, c-fos and c-jun in HL-60 cells; assay: Expression of proto-oncogenes (RNA blot)
Description: Total RNA was isolated from HL-60 cells using an RNAzol B kit (Biotecx, Galveston, Tex.) and quantified spectrophotometrically. Total cellular RNA (20 μg) from control or 278E-treated cells was electrophoresed on a 1.2% agarose gel and transferred to a nylon membrane. The blots were probed with radiolabeled cDNA of c-myc, c-fms, c-fos and c-jun. Glyceraldehyde-3-phosphate dehydrogenase (G3PDH) was used as an internal control.

HL-60 cells [7] = assay: Induction of monocytic differentiation by various combination treatments; remark: listed apart in the source

Structure (SMILES): CC1CNCCN1S(=O)(=O)c1cccc2cnccc12 (centres unmarked) [H7]
- monocytes/macrophages (%) (HL-60 cells [1]; H7 15 μM alone): 0%

Structure (SMILES): COc1cc(-c2oc3c(OC)cc(CCCO)cc3c2CO)ccc1Oc1ccccc1 [278E]
- effect on cell viability compared with untreated cells (HL-60 cells [2]; 1 μg/ml): minimal effect
- inhibition at 5 µg/mL (HL-60 cells [2]; Homo sapiens, HL-60, 72 h, day 3): 85.5 ± 2.8%
- inhibition at 5 µg/mL (HL-60 cells [2]; Homo sapiens, HL-60, 120 h, day 5): 91.7 ± 1.7%
- IC50 (HL-60 cells [2]; Homo sapiens, HL-60 cells, viable cell count, 1-6 μg/ml for 1-5 days, read-out: concentration yielding 50% inhibition (IC50)): 3.48 µg/mL (≈ 8.01 µM)
- growth of HL-60 cells (HL-60 cells [2]; dose- and time-dependent (FIG. 1)): inhibited significantly
- cell morphology (HL-60 cells [3]; after 5 days of treatment (FIG. 2B)): many cells exhibited changes in characteristics
- percentage of mature monocyte/macrophage (HL-60 cells [3]; after 5 days of treatment (FIG. 3), concentration not given): 82.0±6.3%
- NBT reduction, Positive cells (%) (HL-60 cells [4]; 1 μg/ml): 0.3 ± 0.3%
- NBT reduction, Positive cells (%) (HL-60 cells [4]; 2 μg/ml): 1.8 ± 1.2%
- NBT reduction, Positive cells (%) (HL-60 cells [4]; 3 μg/ml): 9.3 ± 2.8%
- NBT reduction, Positive cells (%) (HL-60 cells [4]; 4 μg/ml): 59.0 ± 12.6 ^a %
- Positive cells (%) CD11b (HL-60 cells [5]; 1 μg/ml): 1.8 ± 0.5%
- Positive cells (%) CD14 (HL-60 cells [5]; 1 μg/ml): 1.5 ± 0.4%
- Positive cells (%) CD68 (HL-60 cells [5]; 1 μg/ml): 1.4 ± 0.4%
- Positive cells (%) CD11b (HL-60 cells [5]; 2 μg/ml): 2.6 ± 0.6%
- Positive cells (%) CD14 (HL-60 cells [5]; 2 μg/ml): 2.1 ± 0.6%
- Positive cells (%) CD68 (HL-60 cells [5]; 2 μg/ml): 1.8 ± 0.4%
- Positive cells (%) CD11b (HL-60 cells [5]; 3 μg/ml): 18.1 ± 6.5 ^a %
- Positive cells (%) CD14 (HL-60 cells [5]; 3 μg/ml): 5.8 ± 2.8%
- Positive cells (%) CD68 (HL-60 cells [5]; 3 μg/ml): 5.6 ± 2.1%
- Positive cells (%) CD11b (HL-60 cells [5]; 4 μg/ml): 62.1 ± 10.4 ^a %
- Positive cells (%) CD14 (HL-60 cells [5]; 4 μg/ml): 47.7 ± 10.6 ^a %
- Positive cells (%) CD68 (HL-60 cells [5]; 4 μg/ml): 34.5 ± 9.9 ^a %
- Positive cells (%) CD11b (HL-60 cells [5]; 5 μg/ml): 79.6 ± 9.8 ^a %
- Positive cells (%) CD68 (HL-60 cells [5]; 5 μg/ml): 53.7 ± 10.0 ^a %
- expression of c-myc ([6]; 6 μg/ml, 16 hour treatment (FIG. 4A)): markedly suppressed
- expression of c-fms ([6]; after treatment (FIG. 4B)): enhanced
- expression of c-jun ([6]; after treatment (FIG. 4C)): enhanced
- expression of c-fos ([6]; after treatment (FIG. 4D)): enhanced
- monocytes/macrophages (%) (HL-60 cells [7]; 278E 6 μg/m with H7 15 μM): 51.3 ± 5.3%
- monocytes/macrophages (%) (HL-60 cells [7]; 278E 6 μg/ml alone): 56.1 ± 6.2%
- monocytes/macrophages (%) (HL-60 cells [7]; 278E 6 μg/ml with Staurosporine 10 nM): 55.6 ± 4.7%

Structure (SMILES): CN[C@@H]1C[C@H]2O[C@@](C)([C@@H]1OC)n1c3ccccc3c3c4c(c5c6ccccc6n2c5c31)C(=O)NC4 [Staurosporine]
- monocytes/macrophages (%) (HL-60 cells [1]; Staurosporine 10 nM alone): 0%

Structure (SMILES): CCCCCCCCCCCCCC(=O)O[C@@H]1[C@@H](C)[C@@]2(O)[C@@H](C=C(CO)C[C@]3(O)C(=O)C(C)=C[C@@H]23)[C@H]2C(C)(C)[C@]12OC(C)=O [TPA]
- differentiation-inducing activity after pretreatment of PKC inhibitor H7 and staurosporine (HL-60 cells [1]; HL-60 cells, Table 3): suppressed
- monocytes/macrophages (%) (HL-60 cells [1]; TPA 10 ng/ml alone): 76.8 ± 7.2%
- monocytes/macrophages (%) (HL-60 cells [1]; TPA 10 ng/ml with H7 15 μM): 30.2 ± 4.5%
- monocytes/macrophages (%) (HL-60 cells [1]; TPA 10 ng/ml with Staurosporine 10 nM): 35.0 ± 2.3%
